Test results as given in the NIST ThermoML archive (doi:10.1021/je4004542).
Where “and” joins values, the source holds several entries; their conditions need not be identical. Equal values may be shown once.

Conditions: for mass density: Liquid, isochoric method; for surface tension liquid-gas: Ring tensiometer

CC(F)(F)CC(F)(F)F [1,1,1,3,3-pentafluorobutane]
Conditions	mass density [kg/m3]
237.49 K, 3052.4 kPa	1382.79
238.27 K, 4040.1 kPa	1382.71
239.08 K, 5074 kPa	1382.22
239.08 K, 5081.7 kPa	1382.63
243.12 K, 10185 kPa	1382.22
247.08 K, 15188 kPa	1381.81
247.43 K, 956.6 kPa	1361.21
248.25 K, 1931.8 kPa	1361.13
249.22 K, 3081.2 kPa	1361.03
250.2 K, 4243.7 kPa	1360.94
250.92 K, 19991 kPa	1381.43
250.93 K, 5088.8 kPa	1360.86
255 K, 25056 kPa	1381.02
255.26 K, 10152 kPa	1360.44
258.99 K, 29998 kPa	1380.62
259.5 K, 15102 kPa	1360.02
260.21 K, 1298.1 kPa	1336.72
261.05 K, 2152.9 kPa	1336.64
261.98 K, 3278.8 kPa	1336.55
262.73 K, 4030.2 kPa	1336.48
262.97 K, 34873 kPa	1380.23
263.72 K, 19989 kPa	1359.61
263.74 K, 5132.2 kPa	1336.38
267.12 K, 39916 kPa	1379.82
268.05 K, 24964 kPa	1359.2
268.32 K, 10033 kPa	1335.95
272.35 K, 29861 kPa	1358.79
273.08 K, 15145 kPa	1335.5
273.72 K, 1076.8 kPa	1309.97
274.73 K, 2060 kPa	1309.88
275.63 K, 2942.2 kPa	1309.8
276.61 K, 3921.9 kPa	1309.71
276.83 K, 34914 kPa	1358.36
277.65 K, 4903.9 kPa	1309.61
277.66 K, 19995 kPa	1335.08
281.43 K, 40068 kPa	1357.92
282.34 K, 24894 kPa	1334.64
282.69 K, 10162 kPa	1310.01
287.06 K, 29792 kPa	1334.21
287.75 K, 1242 kPa	1280.22
287.79 K, 15107 kPa	1309.56
288.9 K, 2019.2 kPa	1280.13
290.22 K, 3193 kPa	1280.01
291.35 K, 4070.9 kPa	1279.92
292.09 K, 35022 kPa	1333.75
292.96 K, 5455.1 kPa	1279.78
292.96 K, 20092 kPa	1309.09
296.9 K, 39956 kPa	1333.31
297.78 K, 24667 kPa	1308.67
298.16 K, 10021 kPa	1279.33
298.57 K, 1157.4 kPa	1258.72
299.69 K, 2006.3 kPa	1258.62
301.02 K, 3084.3 kPa	1258.51
302.24 K, 4081.3 kPa	1258.41
303.22 K, 29830 kPa	1308.18
303.47 K, 5080.2 kPa	1258.31
303.85 K, 15147 kPa	1278.84
308.65 K, 34947 kPa	1307.7
309.5 K, 20037 kPa	1278.36
309.51 K, 9974.6 kPa	1257.8
309.96 K, 1066.8 kPa	1234.65
311.31 K, 2069.7 kPa	1234.54
312.57 K, 3017.8 kPa	1234.43
313.89 K, 4006.1 kPa	1234.33
314.06 K, 40001 kPa	1307.23
315.23 K, 5013.4 kPa	1234.22
315.28 K, 25013 kPa	1277.86
315.8 K, 15053 kPa	1257.28
321.09 K, 29987 kPa	1277.37
322.04 K, 20055 kPa	1256.76
322.05 K, 10082 kPa	1233.67
322.3 K, 1278.8 kPa	1207.34
323.48 K, 1919.7 kPa	1207.25
325.25 K, 3125.1 kPa	1207.12
326.62 K, 4057.4 kPa	1207.01
326.99 K, 34967 kPa	1276.87
327.9 K, 4926.1 kPa	1206.91
328.32 K, 25047 kPa	1256.24
328.8 K, 15073 kPa	1233.12
333.06 K, 40085 kPa	1276.36
334.62 K, 30028 kPa	1255.72
335.52 K, 1037.9 kPa	1175.56
335.52 K, 10079 kPa	1206.32
335.52 K, 20025 kPa	1232.59
337.15 K, 2014.4 kPa	1175.44
338.81 K, 3050.5 kPa	1175.32
340.39 K, 4011 kPa	1175.2
341.51 K, 35426 kPa	1255.16
342.03 K, 5008.9 kPa	1175.08
342.36 K, 25012 kPa	1232.04
343.05 K, 15153 kPa	1205.73
347.07 K, 39768 kPa	1254.7
353.15 K, 11756 kPa	1174.25
353.15 K, 21912 kPa	1204.96
353.15 K, 32850 kPa	1231.18

Conditions	surface tension liquid-gas
261.8 K	19.87 mN/m
261.94 K	19.66 mN/m
268.05 K	19.19 mN/m
268.09 K	19.01 mN/m
273.05 K	18.56 mN/m and 18.41 mN/m
277.76 K	18.08 mN/m and 17.98 mN/m
282.88 K	17.57 mN/m
282.98 K	17.42 mN/m
288.32 K	17.05 mN/m
288.35 K	16.88 mN/m
293.51 K	16.3 mN/m
293.54 K	16.29 mN/m
297.79 K	15.81 mN/m
297.86 K	15.92 mN/m
302.48 K	15.41 mN/m
302.55 K	15.38 mN/m
308.11 K	14.66 mN/m
308.31 K	14.65 mN/m

COC(F)(F)C(F)(F)C(F)(F)F [heptafluoropropyl methyl ether]
Conditions	mass density [kg/m3]
209.16 K, 1147.7 kPa	1630.6
215.36 K, 9581.3 kPa	1629.81
219.53 K, 15297 kPa	1629.29
220.04 K, 1236.5 kPa	1604.5
223 K, 19918 kPa	1628.87
223.03 K, 4963.4 kPa	1604.13
227.03 K, 9963.9 kPa	1603.65
231.15 K, 15085 kPa	1603.16
231.6 K, 910.5 kPa	1576.15
232.59 K, 2030.9 kPa	1576.04
233.44 K, 3013 kPa	1575.94
234.26 K, 3948.9 kPa	1575.84
235.13 K, 20005 kPa	1602.69
235.25 K, 5067.3 kPa	1575.72
239.34 K, 25172 kPa	1602.2
239.68 K, 10109 kPa	1575.21
243.19 K, 29834 kPa	1601.75
244.03 K, 15038 kPa	1574.72
244.63 K, 1009.9 kPa	1544.86
245.59 K, 1998.3 kPa	1544.75
246.51 K, 2962.6 kPa	1544.65
247.39 K, 3900.7 kPa	1544.55
247.5 K, 35024 kPa	1601.26
248.47 K, 20022 kPa	1574.22
248.53 K, 5046.1 kPa	1544.43
251.72 K, 40059 kPa	1600.78
252.99 K, 25061 kPa	1573.71
253.35 K, 10014 kPa	1543.89
257.43 K, 29986 kPa	1573.22
258.16 K, 14929 kPa	1543.37
258.74 K, 1019.7 kPa	1509.93
259.75 K, 1914.3 kPa	1509.82
260.88 K, 2987.6 kPa	1509.7
261.92 K, 3946.9 kPa	1509.59
262 K, 34997 kPa	1572.72
263.02 K, 19886 kPa	1542.85
263.07 K, 5031.9 kPa	1509.47
266.61 K, 40003 kPa	1572.21
267.97 K, 24863 kPa	1542.32
268.54 K, 10046 kPa	1508.89
273.04 K, 29941 kPa	1541.78
273.95 K, 14959 kPa	1508.34
274.52 K, 994.4 kPa	1470.55
275.72 K, 1967.2 kPa	1470.43
276.99 K, 3007.5 kPa	1470.3
278.09 K, 34925 kPa	1541.25
278.24 K, 4016.2 kPa	1470.18
279.44 K, 4996 kPa	1470.06
279.44 K, 19959 kPa	1507.77
283.23 K, 39964 kPa	1540.71
284.96 K, 24913 kPa	1507.21
285.69 K, 10030 kPa	1469.44
285.95 K, 1083.6 kPa	1440.86
287.33 K, 2026 kPa	1440.73
288.68 K, 3021.9 kPa	1440.6
289.89 K, 3919.7 kPa	1440.48
290.57 K, 29908 kPa	1506.65
291 K, 4729.9 kPa	1440.38
291.9 K, 15010 kPa	1468.83
296.23 K, 34913 kPa	1506.08
298.15 K, 9994.4 kPa	1439.7
298.15 K, 19997 kPa	1468.22
298.45 K, 987.1 kPa	1407.52
300.45 K, 2316.3 kPa	1407.33
301.51 K, 3015.6 kPa	1407.24
302.03 K, 40008 kPa	1505.49
303.04 K, 4032 kPa	1407.09
304.36 K, 4907.1 kPa	1406.97
304.43 K, 24980 kPa	1467.62
305.45 K, 15319 kPa	1439.01
310.78 K, 29953 kPa	1467.01
312.11 K, 10022 kPa	1406.27
312.12 K, 1009.6 kPa	1369.41
312.57 K, 20469 kPa	1438.34
313.79 K, 1997.3 kPa	1369.27
315.49 K, 2985.1 kPa	1369.12
317.16 K, 3966.3 kPa	1368.97
317.19 K, 34932 kPa	1466.39
318.7 K, 4864.6 kPa	1368.84
319.58 K, 25523 kPa	1437.69
319.65 K, 14861 kPa	1405.59
323.78 K, 40025 kPa	1465.77
326.44 K, 30424 kPa	1437.05
327.49 K, 1098.2 kPa	1324.67
327.49 K, 10016 kPa	1368.08
327.51 K, 19990 kPa	1404.89
329.49 K, 2043 kPa	1324.5
331.48 K, 3053.3 kPa	1324.34
333.43 K, 4045.4 kPa	1324.18
333.47 K, 35408 kPa	1436.41
335.24 K, 25016 kPa	1404.19
335.37 K, 5030.2 kPa	1324.02
335.65 K, 14779 kPa	1367.37
340.74 K, 40506 kPa	1435.74
342.96 K, 29980 kPa	1403.51
344.67 K, 20018 kPa	1366.6
345.22 K, 10048 kPa	1323.21
353.15 K, 14072 kPa	1322.56
353.15 K, 24901 kPa	1365.87
353.15 K, 36576 kPa	1402.6

Conditions	surface tension liquid-gas [mN/m]
261.81 K	15.99
261.89 K	15.89
267.86 K	15.39
267.87 K	15.34
272.93 K	14.86
272.95 K	14.85
277.8 K	14.35
277.82 K	14.4
282.63 K	13.7
282.77 K	13.93
287.73 K	13.15
287.83 K	13.47
292.56 K	13.04
297.67 K	12.54
